Reference: US20130172191A1, “STABLE ETHYLENE INHIBITING COMPOUNDS AND METHODS FOR THEIR PREPARATION” (priority 2002, published 2013)

Experiments:
[1] = Chemically induced release of a cyclopropene (1-methylcyclopropene) by a reducing or nucleophilic agent, GC of headspace; format: physicochemical
Protocol: (§1) Into a 50 ml Florence flask with magnetic stirring was placed 2 ml of tetrahydrofuran and 0.30 g of 1,2-diiodo-1-methylcyclopropane. […] GC method uses Varian CP-PoraBOND Q column 10 meters long 0.32 mm ID; helium carrier; initial temperature 50° C.; initial time 0 minutes; ramp rate 20° C./min; final temperature 270° C.; final time 5 minutes; injection volume 0.20 ml. The retention time of an authentic sample of 1-methylcyclopropene was 2.91 minutes. 1 ppm is easily detectable under these conditions.
Into a 100 ml Florence flask with magnetic stirring was placed 2 ml of tetrahydrofuran and 1.0 g of zinc dust. The zinc was activated with 10 drops of 1,2-dibromoethane. Then 0.34 g of 1,2-diiodo-1-methylcyclopropane was added.
Into a 100 ml Florence flask with magnetic stirring was placed 2 ml of methanol and 1.0 g of zinc dust. The zinc was activated with 10 drops of 1,2-dibromoethane. Then 0.34 g of 1,2-diiodo-1-methylcyclopropane was added.
Into a 100 ml Florence flask with magnetic stirring was placed 2 ml of tetrahydrofuran and 1.1 g of magnesium turnings. The magnesium was activated with 10 drops of 1,2-dibromoethane. Then 0.35 g of 1,2-diiodo-1-methylcyclopropane was added.
Into a 50 ml Florence flask with magnetic stirring was placed 3 g of dimethylformamide and 1.2 g of triphenylphosphine. Then 0.83 g of 1,2-diiodo-1-methylcyclopropane was added.
Into a 100 ml Florence flask with magnetic stirring was placed 2 g of dimethylformamide, 0.70 g of potassium t-butoxide, and 0.84 g of 4-methylbenzenethiol. Then 0.40 g of 1,2-diiodo-1-methylcyclopropane was added.
The polymeric reagent was prepared by slurrying 50 ml of Duolite™ GT73 (Rohm and Haas Company) and stirring for two hours with 50 ml of water and 10 g of 45% aqueous potassium hydroxide. The slurry was filtered, washed twice with water, thrice with methanol, air dried, and placed in a vacuum oven overnight. 0.54 g of this polymeric reagent was placed in a 122 ml vial and the beads were wetted with 0.10 g of 1,2-diiodo-1-methylcyclopropane in 0.70 g of methanol.

[2] = Control experiment: 1,2-diiodo-1-methylcyclopropane in tetrahydrofuran without reagent, GC of headspace; format: physicochemical; conditions: 0.30 g in 2 ml tetrahydrofuran, no reagent, stirring 5 minutes; 1 ppm easily detectable
Protocol: as §1

1-methylcyclopropene in headspace (GC analysis) ([1]; magnesium turnings 1.1 g (activated with 1,2-dibromoethane) in 2 ml tetrahydrofuran, 0.35 g precursor, 100 ml flask, stirring 3 hours): 49993 ppm | 1-methylcyclopropene in headspace (GC analysis) ([1]; polymeric benzenethiol reagent (Duolite GT73, KOH treated) 0.54 g, 0.10 g precursor in 0.70 g methanol, 122 ml vial, overnight at room temperature): 134 ppm | 1-methylcyclopropene in headspace (GC analysis) ([1]; triphenylphosphine 1.2 g in 3 g dimethylformamide, 0.83 g precursor, 50 ml flask, 15 minutes at room temperature): 10 ppm | 1-methylcyclopropene in headspace (GC analysis) ([1]; zinc dust 1.0 g (activated with 1,2-dibromoethane) in 2 ml methanol, 0.34 g precursor, 100 ml flask, stirring 30 minutes): 98390 ppm | 1-methylcyclopropene in headspace (GC analysis) ([1]; zinc dust 1.0 g (activated with 1,2-dibromoethane) in 2 ml tetrahydrofuran, 0.34 g precursor, 100 ml flask, stirring 20 hours): 4658 ppm | 1-methylcyclopropene in headspace (GC analysis) [2]: no detectable 1-methylcyclopropene
Compound: CC1(I)CC1I (stereo not shown) [Example 60, 1,2-diiodo-1-methylcyclopropane]
1-methylcyclopropene in headspace (GC analysis) ([1]; 4-methylbenzenethiol 0.84 g, potassium t-butoxide 0.70 g in 2 g dimethylformamide, 0.40 g precursor, 100 ml flask, 15 minutes at room temperature): 87567 ppm
